# Earlier results in patent US20060159622A1, “Pharmacodynamic assay for inhibitors of 11-beta-hydroxysteroid dehydrogenase activity in animal tissues” (priority 2003, published 2006).
# Tested on: HSD
# Conditions: normal human volunteers
smiles,measurement,value
CC1(C)[C@@H](OC(=O)CCC(=O)O)CC[C@]2(C)[C@H]3C(=O)C=C4[C@@H]5C[C@@](C)(C(=O)O)CC[C@]5(C)CC[C@@]4(C)[C@]3(C)CC[C@@H]12 [carbenoxolone],insulin sensitivity,increased insulin sensitivity
